Experimental findings from ChEMBL document CHEMBL1158201, “Barbamide, a chlorinated metabolite with molluscicidal activity from the Caribbean cyanobacterium Lyngbya majuscula” (J Nat Prod, 1996) are described below.

The structures appear in SMILES notation. In brackets after ≈: the same amount, converted by molar mass.

Holding throughout (assay type): organism-based
Common to all, as to conditions: in vivo

A short description of series [1]: Ichthyotoxicity in Carassius auratus.
The test system of series [2] is Biomphalaria glabrata. Kind of series: Molluscicidal activity against Biomphalaria glabrata after 24 hrs.
Series [3] is described as follows: Toxicity in Artemia salina.

In general, LC50 refers to the concentration that kills 50% of the test population. For `C=C1CC(=O)N[C@@H](C)C(=O)N(C)[C@@H](C(C)C)C(=O)NCC(=O)O[C@@H](/C(C)=C/C(C)=C/C(C)(C)C)[C@@H]1C` [ANTILLATOXIN], in series [1], the LC50 turned out to be 0.05 µg/mL (≈ 0.0993 µM). For the molecule `CO/C(=C/C(=O)N(C)C(Cc1ccccc1)c1nccs1)CC(C)C(Cl)(Cl)Cl` (centres undefined) [BARBAMIDE], the LC100 in series [2] worked out at 100 µg/mL. As to `C=CC[C@@H](CC/C(C)=C/C=C/CC/C=C\[C@@H]1CSC([C@@H]2C[C@@H]2C)=N1)OC` [CURACIN A], the LC50 in series [3] is 0.0025 µg/mL (≈ 0.00669 µM). `C=C(CCNC(=O)CC/C=C/C[C@H](CCCCCCC)OC)[C@@]12O[C@@H]1CC=C(C)C2=O` [MALYNGAMIDE H] showed an LC50 in series [1] of 5 µg/mL (≈ 11.6 µM).
